“Also recorded” adds a separate entry of the source.
Tests used:
[1] = test system: wt mice; test: Insl5 administered intraperitoneally, food intake in wt mice; assay type: in vivo; settings: wt mice (129/SvEv), intraperitoneal, dose dependent; FIG. 9 upper panel
Experimental: (§1) To test the hypothesis that Insl5 is an orexigenic hormone directly, it was administered intraperitoneally to wt and GPR100−/− mice. […] Moreover, this effect is mediated through GPR100.

[2] = biological target: GPR100 (Homo sapiens, UniProt Q8TDU9); settings: mature Insl5; cited from earlier work
Chain of GPR100 (Q8TDU9 whole entry, species assumed): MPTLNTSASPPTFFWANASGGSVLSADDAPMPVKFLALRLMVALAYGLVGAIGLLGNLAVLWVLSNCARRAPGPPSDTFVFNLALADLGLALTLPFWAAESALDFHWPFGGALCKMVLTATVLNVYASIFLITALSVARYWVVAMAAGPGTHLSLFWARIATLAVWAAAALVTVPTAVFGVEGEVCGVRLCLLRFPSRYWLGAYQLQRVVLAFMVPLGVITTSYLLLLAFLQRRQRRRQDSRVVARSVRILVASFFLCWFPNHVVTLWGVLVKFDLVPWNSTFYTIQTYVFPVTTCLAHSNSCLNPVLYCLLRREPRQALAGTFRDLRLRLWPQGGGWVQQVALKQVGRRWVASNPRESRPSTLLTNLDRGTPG

[3] = test system: GPR100−/− mice; test: Insl5 administered intraperitoneally, feeding behaviour in GPR100−/− mice; assay type: in vivo; settings: intraperitoneal, FIG. 9 lower panel
Experimental: as §1

insulin-like peptide 5 [Insl5, 45 amino acid residue mature peptide comprising an A chain and a B chain connected by disulfide bonds; endogenous ligand of GPR100]
food intake [1]: increase of food intake; also recorded: significant increase in food intake | affinity in displacing relaxin-3 peptide from GPR100 [2]: high affinity, in the nanomolar range | feeding behaviour [3]: no effect on feeding behaviour
